The values below come from US20250098679A1, “HERBICIDAL PYRIDONE DERIVATIVES” (SYNGENTA CROP PROTECTION AG, priority 2021, published 2025).

What all share (type): in vivo
Test [1] has as its system Setaria faberi (SETFA). In words: Pre-emergence Test, Setaria faberi (SETFA). To be noted: 1000 g/ha, evaluated after 13 days.
Test [2] has as its system Echinochloa crus-galli (ECHCG). In words: Pre-emergence Test, Echinochloa crus-galli (ECHCG). Particulars: 1000 g/ha, evaluated after 13 days.
In test [3] the test system is Zea mays (ZEAMX). Nature of the test: Pre-emergence Test, Zea mays (ZEAMX). To be noted: 1000 g/ha, evaluated after 13 days.
Test [4] deals with Ipomoea hederacea (IPOHE). Nature of the test: Pre-emergence Test, Ipomoea hederacea (IPOHE). Particulars: 1000 g/ha, evaluated after 13 days.
Test [5] concerns Amaranthus palmeri (AMAPA). In words: Pre-emergence Test, Amaranthus palmeri (AMAPA). To be noted: 1000 g/ha, evaluated after 13 days.
In test [6] the test system is Amaranthus retoflexus (AMARE). In words: Pre-emergence Test, Amaranthus retoflexus (AMARE). To be noted: 1000 g/ha, evaluated after 13 days.
For test [7], the system named is Setaria faberi (SETFA). Nature of the test: Post-emergence Test, Setaria faberi (SETFA). To be noted: evaluated after 13 days. Also noted: key to percentage damage caused to the plant, SETFA (five-point scale): 5=81-100%, 4=61-80%, 3=41-60%, 2=21-40%, 1=0-20% damage. Put shortly:
(§1)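 Spray application at 1000 g/ha unless otherwise stated. Damage was scored 13 days later as 1 (0-20%) to 5 (81-100%).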

Test [8] concerns Echinochloa crus-galli (ECHCG). Nature of the test: Post-emergence Test, Echinochloa crus-galli (ECHCG). To be noted: evaluated after 13 days. On the set-up: key to percentage damage caused to the plant, ECHCG (five-point scale): 5=81-100%, 4=61-80%, 3=41-60%, 2=21-40%, 1=0-20% damage. The essentials: as §1
Test [9] concerns Zea mays (ZEAMX). In words: Post-emergence Test, Zea mays (ZEAMX). Also noted: key to percentage damage caused to the plant, ZEAMX (five-point scale): 5=81-100%, 4=61-80%, 3=41-60%, 2=21-40%, 1=0-20% damage. To be noted: evaluated after 13 days. Put shortly:
as §1

Test [10] relates to Ipomoea hederacea (IPOHE). In words: Post-emergence Test, Ipomoea hederacea (IPOHE). To be noted: evaluated after 13 days. On the set-up: key to percentage damage caused to the plant, IPOHE (five-point scale): 5=81-100%, 4=61-80%, 3=41-60%, 2=21-40%, 1=0-20% damage. The essentials:
as §1

Test [11] concerns Amaranthus palmeri (AMAPA). Nature of the test: Post-emergence Test, Amaranthus palmeri (AMAPA). Also noted: key: 5=81-100%, 4=61-80%, 3=41-60%, 2=21-40%, 1=0-20% damage. To be noted: evaluated after 13 days. The essentials:
as §1

Test [12] concerns Amaranthus retoflexus (AMARE). In words: Post-emergence Test, Amaranthus retoflexus (AMARE). Particulars: evaluated after 13 days. On the set-up: key to percentage damage caused to the plant, AMARE (five-point scale): 5=81-100%, 4=61-80%, 3=41-60%, 2=21-40%, 1=0-20% damage. The essentials: as §1

Each structure is given as a SMILES string.

On to `CCn1c(Cn2nc(C)cc2O)cc(=O)c(C(=O)O)c1-c1ccc(Cl)c(Cl)c1` [Compound 146, 2-(3,4-dichlorophenyl)-1-ethyl-6-[(5-hydroxy-3-methyl-pyrazol-1-yl)methy]-4-oxo-pyridine-3-carboxylic acid], for which the “Pre-emergence Test SETFA, percentage damage caused to the plant (five-point scale)” value in test [1] is 1 (1=0-20%). In test [2], the “Pre-emergence Test ECHCG, percentage damage caused to the plant (five-point scale)” value is 1 (1=0-20%). In addition, the “Pre-emergence Test ZEAMX, percentage damage caused to the plant (five-point scale)” value in [3] turned out to be 0. The “Pre-emergence Test IPOHE, percentage damage caused to the plant (five-point scale)” value in [4] is reported as 0. Also, in test [5], the “Pre-emergence Test AMAPA, percentage damage caused to the plant (five-point scale)” value was 0. The “Pre-emergence Test AMARE, percentage damage caused to the plant (five-point scale)” value in test [6] was 0. Besides, in [7] (1000 g/ha), the “percentage damage caused to the plant, SETFA (five-point scale)” value is on record as 1 (1=0-20%). In addition, in test [8] (1000 g/ha), the “percentage damage caused to the plant, ECHCG (five-point scale)” value was 0. In test [9] (1000 g/ha), the “percentage damage caused to the plant, ZEAMX (five-point scale)” value was determined as 0. Besides, the “percentage damage caused to the plant, IPOHE (five-point scale)” value in [10] (1000 g/ha) worked out at 0. For the same molecule, the “percentage damage caused to the plant, AMAPA (five-point scale)” value in test [11] (1000 g/ha) was 0. The “percentage damage caused to the plant, AMARE (five-point scale)” value in test [12] (1000 g/ha) is 0.

Take `CCn1c(Cn2ccc(C(F)(F)F)n2)cc(=O)c(C(=O)O)c1-c1ccc(F)c(F)c1` [Compound 31, 2-(3,4-difluorophenyl)-1-ethyl-4-oxo-6-[[3-(trifluoromethyl)pyrazol-1-yl]methyl]pyridine-3-carboxylic acid]: the “Pre-emergence Test SETFA, percentage damage caused to the plant (five-point scale)” value in [1] is 5 (5=81-100%). Moreover, the “Pre-emergence Test ECHCG, percentage damage caused to the plant (five-point scale)” value in test [2] is 5 (5=81-100%). Also, the “Pre-emergence Test ZEAMX, percentage damage caused to the plant (five-point scale)” value in [3] amounted to 0. Besides, the “Pre-emergence Test IPOHE, percentage damage caused to the plant (five-point scale)” value in test [4] is on record as 1 (1=0-20%). Also, the “Pre-emergence Test AMAPA, percentage damage caused to the plant (five-point scale)” value in [5] is 0. Moreover, in test [6], the “Pre-emergence Test AMARE, percentage damage caused to the plant (five-point scale)” value was found to be 0. Also, the “percentage damage caused to the plant, SETFA (five-point scale)” value in [7] (250 g/Ha) and in test [7] (1000 g/ha) was 4 (4=61-80%) each time. The “percentage damage caused to the plant, ECHCG (five-point scale)” value in [8] (250 g/Ha) was 2 (2=21-40%); in test [8] (1000 g/ha) it was 4 (4=61-80%). Moreover, the “percentage damage caused to the plant, ZEAMX (five-point scale)” value in test [9] (250 g/Ha) is on record as 1 (1=0-20%); in test [9] (1000 g/ha), 3 (3=41-60%). In addition, the “percentage damage caused to the plant, IPOHE (five-point scale)” value in [10] (250 g/Ha) is on record as 4 (4=61-80%); in test [10] (1000 g/ha), 2 (2=21-40%). The “percentage damage caused to the plant, AMAPA (five-point scale)” value in test [11] (250 g/Ha) is recorded as 0; in test [11] (1000 g/ha), 2 (2=21-40%). Moreover, the “percentage damage caused to the plant, AMARE (five-point scale)” value is recorded as 1 (1=0-20%) in [12] (250 g/Ha) and 2 (2=21-40%) in test [12] (1000 g/ha).
